Test results published in US6585967B2, “Adhesive treatment for tinea cruris” (Closure Medical Corporation, priority 2001, dated 2003).

Test: Observation of haloprogin / 2-octyl cyanoacrylate monomer composition after preparation
Format: physicochemical
Protocol: A 2-octyl cyanoacrylate monomer composition is prepared by adding 30 mg of haloprogin, an anti-fungal agent, to 2 mL of 2-octyl cyanoacrylate monomer. The mixture is sealed in a glass vial and stirred. The characteristics of the composition are observed at about one minute after preparation and later at least twenty-four hours after preparation.

Clc1cc(Cl)c(OCC#CI)cc1Cl [haloprogin]
premature polymerization of the monomer (stability) (30 mg haloprogin in 2 mL 2-octyl cyanoacrylate monomer, at least twenty-four hours after preparation): does not cause premature polymerization
solubility of haloprogin in the monomer (30 mg in 2 mL 2-octyl cyanoacrylate monomer, about one minute and at least twenty-four hours after preparation): soluble in the monomer
